Results from US5891877A, “Pharmaceutical compounds” (Xenova Limited, priority 1996, dated 1999).
Where a name gives a salt, the structure may show the parent alone.

Biological target: PAI-1 (Homo sapiens, UniProt P05121)
Assay: PAI-1 inhibition in the S2251 chromogenic substrate assay (PAI functional assay)
Format: biochemical
Details: for inhibition at 20 µM / inhibition at 50 µM / inhibition at 100 µM: read-out: INHIBITION OF PAI-1 (degree of inhibition); for INHIBITION OF PAI-1 (degree of inhibition): unit assumed; for IC50: PAI-1, S2251 assay
Description: In this assay, a compound is incubated with PAI-1 prior to addition to the tPA assay system. Inhibition of PAI-1 results in the production of plasmin from plasminogen. […]
Compounds of formula (A) were tested in a PAI chromogenic substrate assay. […] In turn, the plasmin cleaved the chromogenic substrate S2251 (Kabi-Vitrum) producing pNA (p-nitroaniline) which was detected scectrophotometrically at 405 nm.

Sequence of PAI-1 (P05121 24-402): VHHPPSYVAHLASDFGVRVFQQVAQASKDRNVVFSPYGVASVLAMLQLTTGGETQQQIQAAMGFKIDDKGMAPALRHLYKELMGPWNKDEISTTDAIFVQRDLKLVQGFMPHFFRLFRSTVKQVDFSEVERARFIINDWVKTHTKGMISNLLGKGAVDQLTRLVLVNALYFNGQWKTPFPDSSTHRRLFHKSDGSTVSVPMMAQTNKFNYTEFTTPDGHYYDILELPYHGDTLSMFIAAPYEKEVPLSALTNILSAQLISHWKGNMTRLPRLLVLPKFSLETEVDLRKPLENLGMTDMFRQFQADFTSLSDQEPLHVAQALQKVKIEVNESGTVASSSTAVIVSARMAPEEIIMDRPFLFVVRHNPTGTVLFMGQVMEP

`CN(C)CCCOc1ccc(/C=c2\[nH]c(=O)/c(=C/c3ccco3)[nH]c2=O)cc1` [Compound 5041, (3Z,6Z)-6-(4-(3-Dimethylaminopropoxy)benzylidene)-3-furfurylidene-2,5-piperazinedione] showed an inhibition at 20 µM (20 μM, Table 1, second part) of 0%, an inhibition at 50 µM (Table 1, second part) of 0% and an inhibition at 100 µM (100 μM, Table 1, second part) of 1%.

`O=c1[nH]/c(=C\c2ccc(-n3ccnc3)cc2)c(=O)[nH]/c1=C\c1ccccc1` [Compound 1930] was tested, and the INHIBITION OF PAI-1 (degree of inhibition) (6.25 μm, Table 1, first part) was 30%, the INHIBITION OF PAI-1 (degree of inhibition) (12.5 μm, Table 1, first part) was 38% and the INHIBITION OF PAI-1 (degree of inhibition) (25 μm, Table 1, first part) was 79%. For the same compound, the INHIBITION OF PAI-1 (degree of inhibition) (50 μm, Table 1, first part) was 61% and the INHIBITION OF PAI-1 (degree of inhibition) (100 μm, Table 1, first part) was 54%.

`O=c1[nH]/c(=C\c2ccc(OCC(O)Cn3ccnc3)cc2)c(=O)[nH]/c1=C\c1ccccc1` (stereo not shown) [Compound 5057, (3Z,6Z)-6-Benzylidene-3-(4-(2-hydroxy-3-(1-imidazolyl)propoxy)benzylidene)-2,5-piperazinedione] gave an inhibition at 20 µM (20 μM, Table 1, second part) of 37%, an inhibition at 50 µM (Table 1, second part) of 29% and an inhibition at 100 µM (100 μM, Table 1, second part) of 44%.

`CC(=O)Nc1ccc(/C=c2\[nH]c(=O)/c(=C/c3ccc(OCCCN(C)C)cc3)[nH]c2=O)cc1` [Compound 5048] was tested, and the inhibition at 20 µM (20 μM, Table 1, second part) was 11%, the inhibition at 50 µM (Table 1, second part) was 19% and the inhibition at 100 µM (100 μM, Table 1, second part) was 55%.

`CN(C)CCN(C)Cc1ccc(/C=c2\[nH]c(=O)/c(=C/c3ccccc3)[nH]c2=O)cc1` [Compound 1982, (3Z,6Z)-3-Benzylidene-6-(4-(N-methyl-N-(2-dimethylaminoethyl)aminomethylbenzylidene-2,5-piperazinedione hydrochloride] gave an INHIBITION OF PAI-1 (degree of inhibition) (6.25 μm, Table 1, first part) of 1%, an INHIBITION OF PAI-1 (degree of inhibition) (12.5 μm, Table 1, first part) of 6% and an INHIBITION OF PAI-1 (degree of inhibition) (25 μm, Table 1, first part) of 28%. For the same compound, the INHIBITION OF PAI-1 (degree of inhibition) (50 μm, Table 1, first part) was 49% and the INHIBITION OF PAI-1 (degree of inhibition) (100 μm, Table 1, first part) was 48%.

`CN(C)CCCCCCOc1ccc(/C=c2\[nH]c(=O)/c(=C/c3ccccc3)[nH]c2=O)s1` [Compound 5389, (3Z,6Z)-6-Benzylidene-3-(5-(6-dimethylaminohexyloxy)-2-thienylmethylene)-2,5-piperazinedione] was tested, and the inhibition at 20 µM (20 μM, Table 1, second part) was 55% and the IC50 (Table 1, second part) was 2.5 µM.

`CN(C)CCOc1ccc(/C=c2\[nH]c(=O)/c(=C/c3ccsc3)[nH]c2=O)cc1` [Compound 5071, (3Z,6Z)-6-(4-(2-Dimethylaminoethoxy)benzylidene)-3-(3-thenylidene)-2,5-piperazinedione] showed an inhibition at 20 µM (20 μM, Table 1, second part) of 73%, an inhibition at 50 µM (Table 1, second part) of 82% and an inhibition at 100 µM (100 μM, Table 1, second part) of 80%.

For `CN(C)CC(O)COc1ccc(/C=c2\[nH]c(=O)/c(=C/c3ccccc3)[nH]c2=O)cc1` (stereo not shown) [Compound 5032, (3Z,6Z)-6-Benzylidene-3-(4-(3-dimethylamino-2-hydroxypropoxy)benzylidene)-2,5-piperazinedione], the inhibition at 20 µM (20 μM, Table 1, second part) was 63%, the inhibition at 50 µM (Table 1, second part) was 62% and the inhibition at 100 µM (100 μM, Table 1, second part) was 65%.

Compound `CN(C)CCOc1ccc(/C=c2\[nH]c(=O)/c(=C/c3ccoc3)[nH]c2=O)cc1` [Compound 5062, (3Z,6Z)-6-(4-(2-Dimethylaminoethoxy)benzylidene)-3-(3-furylmethylene)-2,5-piperazinedione] has an inhibition at 20 µM (20 μM, Table 1, second part) of 87%, an inhibition at 50 µM (Table 1, second part) of 81% and an inhibition at 100 µM (100 μM, Table 1, second part) of 78%.

`O=c1[nH]/c(=C\c2ccc(OCC(O)CN3CCN(CCO)CC3)cc2)c(=O)[nH]/c1=C\c1ccccc1` (stereo not shown) [Compound 5043, (3Z,6Z)-6-Benzylidene-3-(4-(2-hydroxy-3-(4-(2-hydroxyethyl)-1-piperazinyl)propoxy)benzylidene)-2,5-piperazinedione] gave an inhibition at 20 µM (20 μM, Table 1, second part) of 1%, an inhibition at 50 µM (Table 1, second part) of 15% and an inhibition at 100 µM (100 μM, Table 1, second part) of 21%.

`O=C(NCCN1CCc2ccccc2C1)c1ccc(/C=c2\[nH]c(=O)/c(=C/c3ccccc3)[nH]c2=O)cc1` [Compound 5391, N-(2-(1,2,3,4-Tetrahydro-2-isoquinolyl)ethyl)-4-((3Z,6Z)-6-benzylidene-2,5-dioxo-3-piperazinylidene)methylbenzamide] showed an INHIBITION OF PAI-1 (degree of inhibition) (20 μM, Table 1, second part) of 64% and an IC50 (Table 1, second part) of 6.5 µM.

`CN(C)CCCOc1ccc(/C=c2\[nH]c(=O)/c(=C/c3cccc4ccccc34)[nH]c2=O)cc1` [Compound 5200, (3Z,6Z)-6-(4-(3-Dimethylaminopropoxy)benzylidene)-3-(1-Naphthylmethylene)-2,5-piperazinedione] was tested, and the INHIBITION OF PAI-1 (degree of inhibition) (20 μM, Table 1, second part) was 10% and the INHIBITION OF PAI-1 (degree of inhibition) (100 μM, Table 1, second part) was 10%.

Work on `O=c1[nH]/c(=C\c2c[nH]c3ccccc23)c(=O)[nH]/c1=C\c1ccccc1` [Compound 1509, (3Z,6Z)-3-Benzylidene-6-(3-indolylmethylene)-2,5-piperazinedione] yielded an INHIBITION OF PAI-1 (degree of inhibition) (6.25 μm, Table 1, first part) of 1%, an INHIBITION OF PAI-1 (degree of inhibition) (12.5 μm, Table 1, first part) of 1% and an INHIBITION OF PAI-1 (degree of inhibition) (25 μm, Table 1, first part) of 1%. For the same compound, the INHIBITION OF PAI-1 (degree of inhibition) (50 μm, Table 1, first part) was 35%, the INHIBITION OF PAI-1 (degree of inhibition) (100 μm, Table 1, first part) was 58% and the IC50 (Table 2) was 50 to 100 µM.

For `CC(C)(C)OC(=O)n1cc(/C=c2\[nH]c(=O)/c(=C/c3ccccc3)[nH]c2=O)c2ccccc21` [Compound 1471, (3Z,6Z)-3-Benzylidene-6-(3-(1-tert-butoxycarbonyl)indolyl)methylene-2,5-piperazinedione], the INHIBITION OF PAI-1 (degree of inhibition) (6.25 μm, Table 1, first part) was 0%, the INHIBITION OF PAI-1 (degree of inhibition) (12.5 μm, Table 1, first part) was 6% and the INHIBITION OF PAI-1 (degree of inhibition) (25 μm, Table 1, first part) was 20%. It also gave an INHIBITION OF PAI-1 (degree of inhibition) (50 μm, Table 1, first part) of 60%, an INHIBITION OF PAI-1 (degree of inhibition) (100 μm, Table 1, first part) of 80% and an IC50 (Table 2) of 25 to 50 µM.

For `CN(C)CCCOc1ccc(/C=c2\[nH]c(=O)/c(=C/c3ccncc3)[nH]c2=O)cc1` [Compound 5027], the inhibition at 20 µM (20 μM, Table 1, second part) was 8%, the inhibition at 50 µM (Table 1, second part) was 8% and the inhibition at 100 µM (100 μM, Table 1, second part) was 12%.

`COc1cc2c(cc1OC)CN(CCc1ccc(NC(=O)c3ccc(/C=c4\[nH]c(=O)/c(=C/c5ccc([N+](=O)[O-])cc5)[nH]c4=O)cc3)cc1)CC2` [Compound 5402] showed an inhibition at 20 µM (20 μM, Table 1, second part) of 37%.

For `O=C(NCCCN1CCc2ccccc2C1)c1ccc(/C=c2\[nH]c(=O)/c(=C/c3ccccc3)[nH]c2=O)cc1` [Compound 5394, N-(3-(1,2,3,4-Tetrahydro-2-isoquinolyl)propyl)-4-((3Z,6Z)-6-benzylidene-2,5-dioxo-3-piperazinylidene)methylbenzamide], the inhibition at 20 µM (20 μM, Table 1, second part) was 59% and the IC50 (Table 1, second part) was 16 µM.

`CSc1ccc(/C=c2\[nH]c(=O)/c(=C/c3ccc(OCCN(C)C)cc3)[nH]c2=O)s1` [Compound 5072, (3Z,6Z)-6-(4-(2-Dimethylaminoethoxy)benzylidene)-3-(5-methylthio-2-thenylidene)-2,5-piperazinedione] showed an inhibition at 20 µM (20 μM, Table 1, second part) of 61%, an inhibition at 50 µM (Table 1, second part) of 61% and an inhibition at 100 µM (100 μM, Table 1, second part) of 60%.

Work on `O=C(NCCCN1CCc2ccccc2C1)c1ccc(/C=c2\[nH]c(=O)/c(=C/c3ccccc3)[nH]c2=O)cc1` [Compound 5394.HCl] yielded an INHIBITION OF PAI-1 (degree of inhibition) (20 μM, Table 1, second part) of 62% and an IC50 (Table 1, second part) of 17 µM.

`COc1ccc(/C=c2\[nH]c(=O)/c(=C/c3cccs3)[nH]c2=O)cc1` [Compound 1474, (3Z,6Z)-3-(4-Methoxybenzylidene)-6-(2-thienylmethylene)-2,5-piperazinedione] gave an INHIBITION OF PAI-1 (degree of inhibition) (25 μm, Table 1, first part) of 28%, an INHIBITION OF PAI-1 (degree of inhibition) (50 μm, Table 1, first part) of 52% and an INHIBITION OF PAI-1 (degree of inhibition) (100 μm, Table 1, first part) of 64%. It also gave an IC50 (Table 2) of 25 to 50 µM.

Compound `CN(C)CC(=O)NCc1ccc(/C=c2\[nH]c(=O)/c(=C/c3ccccc3Br)[nH]c2=O)cc1` [Compound 5079, (3Z,6Z)-3-(2-Bromobenzylidene)-6-(4-dimethylaminoacetamidomethylbenzylidene)-2,5-piperazinedione] has an inhibition at 20 µM (20 μM, Table 1, second part) of 14%, an inhibition at 50 µM (Table 1, second part) of 58% and an inhibition at 100 µM (100 μM, Table 1, second part) of 44%.
